Like-named read-outs stand apart in the source and are kept apart here.
Target: T1, human V1b receptors (Homo sapiens, UniProt P47901)
T1 construct: expressed in transfected cells; preparation V1b-3H2
T1 sequence (P47901 1-424): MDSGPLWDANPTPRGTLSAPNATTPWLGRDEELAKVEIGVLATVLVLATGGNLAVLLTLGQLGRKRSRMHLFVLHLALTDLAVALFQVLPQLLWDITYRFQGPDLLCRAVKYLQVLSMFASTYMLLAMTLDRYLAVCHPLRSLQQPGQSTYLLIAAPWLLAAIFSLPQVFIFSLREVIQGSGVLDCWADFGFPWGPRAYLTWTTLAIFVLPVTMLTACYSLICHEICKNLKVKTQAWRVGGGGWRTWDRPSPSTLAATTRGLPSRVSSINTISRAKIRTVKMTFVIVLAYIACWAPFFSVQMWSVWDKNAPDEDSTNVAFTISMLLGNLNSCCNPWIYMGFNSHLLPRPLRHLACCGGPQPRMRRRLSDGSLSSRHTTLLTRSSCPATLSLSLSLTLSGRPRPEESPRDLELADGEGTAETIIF
Test: Vasopressin V1b receptor binding assay
Method: Vasopressin V1b Receptor Binding Assay:
This DMSO predilution series was diluted 1:10 with assay buffer. The substance concentration was further diluted 1:10 in the assay mixture.
The nonspecific binding was determined with 10^−6 M AVP. Determinations in triplicate were carried out.
The affinities for the human vasopressin V1b receptor were measured, and affinity constants determined, in the above assay for the inventive examples.
The affinities of the compounds (I) of the invention for the human vasopressin V1b receptor were measured in accordance with the above assays, and the affinity constants. (Ki) were determined. Table 1 below details the V1b receptor affinity of selected compounds (++ means <50 nM and + means 50-500 nM).

[1] = membranes from CHO-K1 cells with human V1b receptors, 3H-AVP displacement, read-out: V1b Ki
[2] = read-out: Ki values, affinity for the vasopressin V1b receptor

SMILES | Ki [1] | Ki [2]
CCOc1ccccc1C1(OC(=O)N2CCN(c3ccncc3)CC2)C(=O)N(S(=O)(=O)c2ccsc2)c2ccc(C#N)cc21 (stereo not drawn) [Example 4, 5-Cyano-3-(2-ethoxyphenyl)-2-oxo-1-(thien-3-ylsulfonyl)-2,3-dihydro-1H-indol-3-yl 4-(pyridin-4-yl)piperazine-1-carboxylate] | < 50 nM | < 100 nM
CCOc1ccccc1C1(OC(=O)N2CCN(c3ncccn3)CC2)C(=O)N(S(=O)(=O)c2cccc3cccnc23)c2ccc(C#N)cc21 (stereo not drawn) [Example 6, 5-Cyano-3-(2-ethoxyphenyl)-2-oxo-1-(quinoline-8-sulfonyl)-2,3-dihydro-1H-indol-3-yl 4-(pyrimidin-2-yl)piperazine-1-carboxylate] | < 50 nM | < 100 nM
CCOc1ccccc1C1(NC(=O)N2CCN(c3ccc(C#N)cn3)CC2)C(=O)N(S(=O)(=O)c2ccsc2)c2ccc(C#N)cc21 (stereo not drawn) [Example 10, 4-(5-Cyanopyridin-2-yl)piperazine-1-[5-cyano-3-(2-ethoxyphenyl)-2-oxo-1-(thien-3-ylsulfonyl)-2,3-dihydro-1H-indol-3-yl]carboxamide] | 50 to 500 nM | < 100 nM
CCOc1ccccc1C1(OC(=O)N2CCN(c3nccs3)CC2)C(=O)N(S(=O)(=O)c2ccsc2)c2ccc(C#N)cc21 (stereo not drawn) [Example 8, 5-Cyano-3-(2-ethoxyphenyl)-2-oxo-1-(thien-3-ylsulfonyl)-2,3-dihydro-1H-indol-3-yl 4-(thiazol-2-yl)piperazine-1-carboxylate] | 50 to 500 nM | –
CCOc1ccccc1C1(NC(=O)N2CCN(c3ccncc3)CC2)C(=O)N(S(=O)(=O)c2cccc3cccnc23)c2ccc(C#N)cc21 (stereo not drawn) [Example 2, 4-(Pyridin-4-yl)piperazin-1-[5-cyano-3-(2-ethoxyphenyl)-2-oxo-1-(quinoline-8-sulfonyl)-2,3-dihydro-1H-indol-3-yl]carboxamide] | < 50 nM | < 100 nM
CCOc1ccccc1C1(OC(=O)N2CCN(c3nccs3)CC2)C(=O)N(S(=O)(=O)c2cccc3cccnc23)c2ccc(C#N)cc21 (stereo not drawn) [Example 1, 5-Cyano-3-(2-ethoxyphenyl)-2-oxo-1-(quinoline-8-sulfonyl)-2,3-dihydro-1H-indol-3-yl 4-(thiazol-2-yl)piperazine-1-carboxylate] | < 50 nM | < 100 nM
CCOc1ccccc1C1(NC(=O)N2CCN(c3ccncc3)CC2)C(=O)N(S(=O)(=O)c2ccsc2)c2ccc(C#N)cc21 (stereo not drawn) [Example 3, 4-(Pyridin-4-yl)piperazin-1-[5-cyano-3-(2-ethoxyphenyl)-2-oxo-1-(thien-3-yl-sulfonyl)-2,3-dihydro-1H-indol-3-yl]carboxamide] | < 50 nM | < 100 nM

More lines, now with the values ahead:

Ki [1] | Ki [2] | SMILES
< 50 nM | < 100 nM | CCOc1ccccc1C1(OC(=O)N2CCN(c3ccccn3)CC2)C(=O)N(S(=O)(=O)c2cccc3cccnc23)c2ccc(C#N)cc21 (stereo not drawn) [Example 5, 5-Cyano-3-(2-ethoxyphenyl)-2-oxo-1-(quinoline-8-sulfonyl)-2,3-dihydro-1H-indol-3-yl 4-(pyridin-2-yl)piperazine-1-carboxylate]
50 to 500 nM | < 100 nM | CCOc1ccccc1C1(OC(=O)N2CCN(c3cnccn3)CC2)C(=O)N(S(=O)(=O)c2cccc3cccnc23)c2ccc(C#N)cc21 (stereo not drawn) [Example 7, 5-Cyano-3-(2-ethoxyphenyl)-2-oxo-1-(quinoline-8-sulfonyl)-2,3-dihydro-1H-indol-3-yl 4-(pyrazin-2-yl)piperazine-1-carboxylate]
< 50 nM | < 100 nM | CCOc1ccccc1C1(OC(=O)N2CCN(c3ccc(C#N)cn3)CC2)C(=O)N(S(=O)(=O)c2cccc3cccnc23)c2ccc(C#N)cc21 (stereo not drawn) [Example 11, 5-Cyano-3-(2-ethoxyphenyl)-2-oxo-1-(quinoline-8-sulfonyl)-2,3-dihydro-1H-indol-3-yl 4-(5-cyanopyridin-2-yl)piperazine-1-carboxylate]
< 50 nM | < 100 nM | CCOc1ccccc1C1(OC(=O)N2CCN(c3ccncc3)CC2)C(=O)N(S(=O)(=O)c2cccc3cccnc23)c2ccc(C#N)cc21 (stereo not drawn) [Example 12, 5-Cyano-3-(2-ethoxyphenyl)-2-oxo-1-(quinoline-8-sulfonyl)-2,3-dihydro-1H-indol-3-yl 4-(pyridin-4-yl)piperazine-1-carboxylate]

Source: US8202870B2, “Substituted oxindole derivatives, medicaments containing the latter and use thereof” (Abbott GmbH & Co. KG, priority 2005, dated 2012)
